Measurements published in patent US10544150B2, “NK-3 receptor selective antagonist compounds, pharmaceutical composition and methods for use in NK-3 receptors mediated disorders” (Ogeda SA, priority 2010, dated 2020).

Tests used:
human NK-3 receptor = human NK-3 receptor (Homo sapiens (Human), UniProt P29371); assay: 3H-SB222200 binding competition assay with human NK-3 receptor; conditions: 3H-SB222200 displacement, CHO cell membranes expressing human NK3 receptor; read-out: Ki range
Procedure, shortened: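 Radioligand displacement: 5 nM tritiated SB222200 competed by varying compound concentrations on recombinant CHO membranes bearing human NK3, buffer pH 7.4 with HEPES, NaCl, CaCl2, MgCl2, BSA and saponin. Filter-bound radioactivity quantified; calculated Ki given as ranges from +++ (<500 nM) to # (>5 μM).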

[1] = system: circulating levels of luteinizing hormone (LH); assay: Castrated male rat model, circulating levels of luteinizing hormone (LH); assay type: in vivo; conditions: castrated male SD rats, single intravenous dose (156 and 144: 10 mg/kg; 71: 15 mg/kg; 114: 20 mg/kg), 60 min post dosing (156 also 120 min), vs. baseline
[2] = system: circulating levels of testosterone; assay: Gonad-intact adult male rat, circulating levels of testosterone; assay type: in vivo; conditions: gonad-intact male SD rats, single intravenous 20 mg/kg dose, over 420 min (AUC)
Procedure: Plasma testosterone levels are represented as an integrated testosterone response (AUC) over a 420 min period following dosing. […] Membrane suspensions were prepared from these cells. The following radioligand: [^125I]-His-MePhe7-Neurokinin B (PerkinElmer Cat # NEX285) was used in this assay. Binding assays were performed in a […]/1 mM CaCl2/5 mM MgCl2/0.5% BSA/10 μg/ml Saponin, at pH 7.4. Binding assays consisted of 25 μl of membrane suspension (approximately 5 μg protein/well in a 96 well plate), 50 μl of compound or reference ligand (MePhe7-Neurokinin B) at increasing concentrations (diluted in assay buffer) and 0.09 nM [^125I]-His-MePhe7-Neurokinin B. The plate was incubated 60 min at 25° C. in a water bath and then filtered over GF/C filters (Perkin Elmer, 6005174, presoaked in assay buffer without saponine for 2 h at room temperature) with a Filtration unit (Perkin Elmer). The radioactivity retained on the filters was measured by using the TopCount-NXT reader (Packard). […]

Chain of human NK-3 receptor (P29371 whole entry): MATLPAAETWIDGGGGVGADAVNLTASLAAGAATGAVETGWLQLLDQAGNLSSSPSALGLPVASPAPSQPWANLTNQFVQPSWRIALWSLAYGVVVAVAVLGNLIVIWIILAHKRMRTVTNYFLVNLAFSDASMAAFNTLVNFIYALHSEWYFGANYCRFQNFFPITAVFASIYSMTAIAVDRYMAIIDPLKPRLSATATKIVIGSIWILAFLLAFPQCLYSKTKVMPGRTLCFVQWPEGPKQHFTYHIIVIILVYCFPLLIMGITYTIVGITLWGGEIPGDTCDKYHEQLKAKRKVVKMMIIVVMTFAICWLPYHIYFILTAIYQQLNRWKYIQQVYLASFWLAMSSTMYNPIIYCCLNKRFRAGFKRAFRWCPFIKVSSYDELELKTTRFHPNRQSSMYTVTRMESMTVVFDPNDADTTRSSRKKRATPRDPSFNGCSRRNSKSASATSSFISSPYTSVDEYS

| SMILES | Ki (human NK-3 receptor) | effect on LH serum levels [1] | effect on plasma testosterone levels [2] |
| --- | --- | --- | --- |
| CC1c2nnc(-c3coc(-c4ccccc4)n3)n2CCN1C(=O)c1ccc(-c2cccs2)cc1 (stereo not shown) [Compound 114, (8-methyl-3-(2-phenyloxazol-4-yl)-5,6-dihydro-[1,2,4]triazolo[4,3-a]pyrazin-7(8H)-yl)(4-(thiophen-2-yl)phenyl)methanone] | < 500 nM | significantly suppressed GnRH-mediated elevation of LH |  |
| C[C@@H]1c2nnc(-c3csc(-c4ccc(F)cc4F)n3)n2CCN1C(=O)c1ccc(-c2cccs2)cc1 [Compound 156, (R)-(3-(2-(2,4-difluorophenyl)thiazol-4-yl)-8-methyl-5,6-dihydro-[1,2,4]triazolo[4,3-a]pyrazin-7(8H)-yl)(4-(thiophen-2-yl)phenyl)methanone] | < 500 nM | significantly suppressed GnRH-mediated elevation of LH | significantly suppressed plasma testosterone levels |
| C[C@@H]1c2nnc(-c3ccc4ccccc4n3)n2CCN1C(=O)c1ccc(-c2cccs2)cc1 [Compound 144, (R)-(8-methyl-3-(quinolin-2-yl)-5,6-dihydro-[1,2,4]triazolo[4,3-a]pyrazin-7(8H)-yl)(4-(thiophen-2-yl)phenyl)methanone] | < 500 nM | significantly suppressed GnRH-mediated elevation of LH |  |
